# Data: patent US20250270170A1, “2,3-DIMETHOXY-5-METHYL-1,4-BENZOQUINONE ALKYL ALCOHOL DERIVATIVE AND USE THEREOF” (BEIJING ANJIANXI BIO-MEDICAL TECHNOLOGY CO., LTD., priority 2021, published 2025)
# Marks after values point to notes of the source that are not given here.
# Tests used:
# [1] = Example 3: body weight of NCI-N87 tumor-bearing nude mice; assay type: in vivo, BALB/c nude mice
# Description: The NCI-N87 cells in the logarithmic growth phase were collected, counted and resuspended in a serum-free RPMI-1640 medium, and the cell concentration was adjusted to 5×10^7 cells/mL. The cells were pipetted with a pipette to disperse them evenly, and the cells were put into a 50-mL centrifuge tube, which was placed in an ice box. A 1-mL syringe was used to draw the cell suspension, which was injected subcutaneously into the axilla of the front right limb of a nude mouse. Each animal was inoculated with 100 μL (5×10^6 cells/mouse) to establish an NCI-N87 transplanted tumor model in nude mice. After the inoculation, the animal status and tumor growth were regularly observed, and the tumor diameter was measured using an electronic vernier caliper. The data were input into an Excel spreadsheet to calculate the tumor volume. When the tumor volume reached 100 to 300 mm^3, 72 animals in good health and with similar tumor volumes were selected and divided into 9 groups (n=8) using randomized block method. The day of grouping was regarded as the first day of the assay (D1). After the start of the assay, the tumor diameter was measured twice a week, the tumor volume was calculated, and the animal body weight was also weighed and recorded. [table] The calculation formula of animal weight loss rate is: wherein BWt represents the animal body weight measured each time during the administration period; BWinitial represents the animal body weight when being grouped for administration. The assay data were calculated and processed statistically using Microsoft Office Excel 2007 software. Unless otherwise specified, the data were expressed as mean±standard error (Mean±SE), and t-test was used for comparison between two groups.
# [2] = tested on: human gastric cancer NCI-N87 transplanted tumor; assay: Example 7: tumor growth in NCI-N87 transplanted tumor model, alone and combined with DDP; assay type: in vivo, nude mice; settings: for Mean tumor volume / tumor growth inhibition rate (TGI): R01 16 mg/kg PO QD×32
# [3] = Example 7: serum UREA content; assay type: in vivo, nude mice; settings: mouse, in vivo, po, 16 mg/kg
# [4] = Example 9: serum urea nitrogen (BUN) at the end of the assay; assay type: in vivo, nude mice; settings: mouse, in vivo
# Description: On the last day of the assay, CO2 inhalation anesthesia was used on the animals 1 hour after the administration (R01). Blood was collected through the heart, and a part of the whole blood was added with EDTA-K2 for anticoagulation. The plasma was separated by centrifugation at 4° C. and 1500 g for 10 minutes. The plasma was collected, and stored in a −40° C. to −20° C. freezer (if necessary, it can be used for the determination of the plasma drug concentration). No anticoagulant was added to the other part of the whole blood, and the serum was separated by centrifugation after the blood coagulated, which was used for the detection of blood urea nitrogen. After the blood collection, the tumor tissue was collected, weighed and photographed. Then, the tumor was divided into two parts, quickly cryopreserved by liquid nitrogen, and transferred to a −90° C. to −60° C. freezer for storage. Bilateral kidneys were collected and fixed in 10% formalin.
# [5] = tested on: human colorectal cancer HT29 transplanted tumor; assay: Example 10: tumor growth in HT-29 transplanted tumor model; assay type: in vivo, nude mice; settings: for Mean tumor volume ± SE / tumor growth inhibition rate: HT-29 model, DDP 5 mg/kg i.p. QW × 3, R01 18 mg/kg i.g. BID × 28
# Description: The human colorectal cancer cell lines HT-29 were obtained from the Cell Bank of the Type Culture Collection Committee of Chinese Academy of Sciences (CAS, cryopreserved in liquid nitrogen in this assay).
# HT-29 cells were routinely cultured in a McCoy […] containing 10% fetal bovine serum under culture conditions of 37° C. and 5% CO2. The cells were digested with 0.25% trypsin, and passaged according to the cell growth conditions with a passaging ratio of 1:3 to 1:4.
# On D1 of the assay, the HT-29 cells in the logarithmic growth phase were collected, counted and resuspended in serum-free McCoy, and the cell concentration was adjusted to 4×10^7 cells/mL. The cells were pipetted with a pipette to disperse them evenly, and the cells were put into a 50-mL centrifuge tube, which was placed in an ice box. A 1-mL syringe was used to draw the cell suspension, which was injected subcutaneously into the axilla of the front right limb of a nude mouse. Each animal was inoculated with 100 μL (4×10^6 cells/mouse) to establish a HT-29 transplanted tumor model in nude mice. After the inoculation, the animal status and tumor growth were regularly observed. On D12, the tumor diameter was measured using an electronic vernier caliper. The data were input into an Excel spreadsheet to calculate the tumor volume. Tumor-bearing mice in good health and with similar tumor volumes (103 to 179 mm^3) were selected and divided into groups using randomized block method. After the start of the assay, the tumor diameter was measured regularly, the tumor volume was calculated, and the animal body weight was also weighed and recorded.
smiles,measurement,setting,value
COC1=C(OC)C(=O)C(CCCCCCCCCCOC(=O)Cc2c(C)n(C(=O)c3ccc(Cl)cc3)c3ccc(OC)cc23)=C(C)C1=O [compound of formula (I)],Mean animal body weight,"[1]; D13, 2 mg/kg i.g. BID×28",18.3 ± 0.4 g
same,Mean animal body weight,"[1]; D13, 6 mg/kg i.g. BID×28",17.6 ± 0.3 g
same,Mean animal body weight,"[1]; D13, 18 mg/kg i.g. BID×28",17.9 ± 0.5 g
same,Mean animal body weight,"[1]; D16, 2 mg/kg i.g. BID×28",18.2 ± 0.5 g
same,body weight loss rate,"[1]; D16, 2 mg/kg i.g. BID×28",(0.41%)
same,Mean animal body weight,"[1]; D16, 6 mg/kg i.g. BID×28",17.6 ± 0.3 g
same,body weight loss rate,"[1]; D16, 6 mg/kg i.g. BID×28",(0.28%)
same,Mean animal body weight,"[1]; D16, 18 mg/kg i.g. BID×28",17.7 ± 0.4 g
same,body weight loss rate,"[1]; D16, 18 mg/kg i.g. BID×28",(1.0%)
same,Mean animal body weight,"[1]; D20, 2 mg/kg i.g. BID×28",18.2 ± 0.4 g
same,body weight loss rate,"[1]; D20, 2 mg/kg i.g. BID×28",(0.27%)
same,Mean animal body weight,"[1]; D20, 6 mg/kg i.g. BID×28",17.5 ± 0.4 g
same,body weight loss rate,"[1]; D20, 6 mg/kg i.g. BID×28",(0.50%)
same,Mean animal body weight,"[1]; D20, 18 mg/kg i.g. BID×28",17.8 ± 0.3 g
same,body weight loss rate,"[1]; D20, 18 mg/kg i.g. BID×28",(0.56%)
same,Mean animal body weight,"[1]; D23, 2 mg/kg i.g. BID×28",18.5 ± 0.5 g
same,body weight loss rate,"[1]; D23, 2 mg/kg i.g. BID×28",(−1.0%)
same,Mean animal body weight,"[1]; D23, 6 mg/kg i.g. BID×28",18.1 ± 0.5 g
same,body weight loss rate,"[1]; D23, 6 mg/kg i.g. BID×28",(−2.7%)
same,Mean animal body weight,"[1]; D23, 18 mg/kg i.g. BID×28",18.0 ± 0.4 g
same,body weight loss rate,"[1]; D23, 18 mg/kg i.g. BID×28",(−0.42%)
same,Mean animal body weight,"[1]; D27, 2 mg/kg i.g. BID×28",18.7 ± 0.5 g
same,body weight loss rate,"[1]; D27, 2 mg/kg i.g. BID×28",(−2.5%)
same,Mean animal body weight,"[1]; D27, 6 mg/kg i.g. BID×28",18.3 ± 0.5 g
same,body weight loss rate,"[1]; D27, 6 mg/kg i.g. BID×28",(−3.7%)
same,Mean animal body weight,"[1]; D27, 18 mg/kg i.g. BID×28",18.1 ± 0.3 g
same,body weight loss rate,"[1]; D27, 18 mg/kg i.g. BID×28",(−1.0%)
same,Mean animal body weight,"[1]; D30, 2 mg/kg i.g. BID×28",18.9 ± 0.4 g
same,body weight loss rate,"[1]; D30, 2 mg/kg i.g. BID×28",(−3.4%)
same,Mean animal body weight,"[1]; D30, 6 mg/kg i.g. BID×28",18.3 ± 0.4 g
same,body weight loss rate,"[1]; D30, 6 mg/kg i.g. BID×28",(−4.0%)
same,Mean animal body weight,"[1]; D30, 18 mg/kg i.g. BID×28",18.4 ± 0.4 g
same,body weight loss rate,"[1]; D30, 18 mg/kg i.g. BID×28",(−2.7%)
same,Mean animal body weight,"[1]; D34, 2 mg/kg i.g. BID×28",19.3 ± 0.5 g
same,body weight loss rate,"[1]; D34, 2 mg/kg i.g. BID×28",(−5.8%)
same,Mean animal body weight,"[1]; D34, 6 mg/kg i.g. BID×28",18.5 ± 0.4 g
same,body weight loss rate,"[1]; D34, 6 mg/kg i.g. BID×28",(−5.1%)
same,Mean animal body weight,"[1]; D34, 18 mg/kg i.g. BID×28",18.7 ± 0.4 g
same,body weight loss rate,"[1]; D34, 18 mg/kg i.g. BID×28",(−4.3%)
same,Mean animal body weight,"[1]; D37, 2 mg/kg i.g. BID×28",19.5 ± 0.5 g
same,body weight loss rate,"[1]; D37, 2 mg/kg i.g. BID×28",(−6.5%)
same,Mean animal body weight,"[1]; D37, 6 mg/kg i.g. BID×28",18.6 ± 0.4 g
same,body weight loss rate,"[1]; D37, 6 mg/kg i.g. BID×28",(−5.8%)
same,Mean animal body weight,"[1]; D37, 18 mg/kg i.g. BID×28",18.8 ± 0.4 g
same,body weight loss rate,"[1]; D37, 18 mg/kg i.g. BID×28",(−4.8%)
same,Mean animal body weight,"[1]; D44, 2 mg/kg i.g. BID×28",19.2 ± 0.6 g
same,body weight loss rate,"[1]; D44, 2 mg/kg i.g. BID×28",(−5.2%)
same,Mean animal body weight,"[1]; D44, 6 mg/kg i.g. BID×28",19.0 ± 0.5 g
same,body weight loss rate,"[1]; D44, 6 mg/kg i.g. BID×28",(−8.0%)
same,Mean animal body weight,"[1]; D44, 18 mg/kg i.g. BID×28",19.1 ± 0.4 g
same,body weight loss rate,"[1]; D44, 18 mg/kg i.g. BID×28",(−6.9%)
same,effect on body weight compared with blank control group,"[1]; NCI-N87 tumor-bearing nude mice, summary of Table 6",no significant effect
same,Mean tumor volume,[2]; D12,155 ± 4 mm^3
same,Mean tumor volume,[2]; D16,200 ± 6** mm^3
same,tumor growth inhibition rate (TGI),[2]; D16,29%
same,Mean tumor volume,[2]; D19,263 ± 14** mm^3
same,tumor growth inhibition rate (TGI),[2]; D19,27%
same,Mean tumor volume,[2]; D23,336 ± 18** mm^3
same,tumor growth inhibition rate (TGI),[2]; D23,30%
same,Mean tumor volume,[2]; D26,421 ± 26** mm^3
same,tumor growth inhibition rate (TGI),[2]; D26,33%
same,Mean tumor volume,[2]; D30,509 ± 46** mm^3
same,tumor growth inhibition rate (TGI),[2]; D30,43%
same,Mean tumor volume,[2]; D33,577 ± 52** mm^3
same,tumor growth inhibition rate (TGI),[2]; D33,45%
same,Mean tumor volume,[2]; D37,681 ± 63** mm^3
same,tumor growth inhibition rate (TGI),[2]; D37,46%
same,Mean tumor volume,[2]; D40,758 ± 74** mm^3
same,tumor growth inhibition rate (TGI),[2]; D40,47%
same,Mean tumor volume,[2]; D44,871 ± 94** mm^3
same,tumor growth inhibition rate (TGI),[2]; D44,45%
same,effect on growth of the NCI-N87 transplanted tumor (summary),"[2]; R01 alone 16 mg/kg QD, combinations: R01 3, 6, 16 mg/kg (QD) with DDP",significant inhibitory effect
same,"Serum UREA content, Mean",[3],7.83 mmol serum^−1
same,BUN (mmol/L) Mean ± SE,[4]; 18 mg/kg,22.51 ± 1.24 mmol/L
same,BUN (mmol/L) Mean ± SE,[4]; 36 mg/kg,22.69 ± 1.17 mmol/L
same,Mean tumor volume ± SE,[5]; D 12 (grouping),134 ± 9 mm^3
same,Mean tumor volume ± SE,[5]; D 15,178 ± 7 mm^3
same,tumor growth inhibition rate,[5]; D 15,(40%)
same,Mean tumor volume ± SE,[5]; D 19,280 ± 9** mm^3
same,tumor growth inhibition rate,[5]; D 19,(42%)
same,Mean tumor volume ± SE,[5]; D 22,393 ± 19** mm^3
same,tumor growth inhibition rate,[5]; D 22,(34%)
same,Mean tumor volume ± SE,[5]; D 26,532 ± 31** mm^3
same,tumor growth inhibition rate,[5]; D 26,(31%)
same,Mean tumor volume ± SE,[5]; D 29,631 ± 40** mm^3
same,tumor growth inhibition rate,[5]; D 29,(38%)
same,Mean tumor volume ± SE,[5]; D 33,832 ± 59** mm^3
same,tumor growth inhibition rate,[5]; D 33,(36%)
same,Mean tumor volume ± SE,[5]; D 36,903 ± 73** mm^3
same,tumor growth inhibition rate,[5]; D 36,(37%)
same,Mean tumor volume ± SE,[5]; D 40,1070 ± 94** mm^3
same,tumor growth inhibition rate,[5]; D 40,(33%)
same,anti-tumor effect in combination with cisplatin (summary),[5]; HT-29 transplanted tumor model in nude mice,synergistic anti-tumor effect
